Assay results reported in ChEMBL document CHEMBL6134877, “Innovative Approaches in Psychedelics, AI, and Communication: A Multi-Domain Perspective” (ACS Med Chem Lett, 2025).

Tests used:
Assay type in all cases: ADME, organism-based
[1] = AUC (infinity) in brain of male C57BL6 mouse at 3 mg/kg, po
[2] = AUClast in brain of male C57BL6 mouse at 3 mg/kg, po
[3] = Cmax in brain of male C57BL6 mouse at 3 mg/kg, po
[4] = Cmax in plasma of male C57BL6 mouse at 3 mg/kg, po
[5] = Half life in plasma of male C57BL6 mouse at 3 mg/kg, po
[6] = AUC (infinity) in plasma of male C57BL6 mouse at 3 mg/kg, po
[7] = Half life in brain of male C57BL6 mouse at 3 mg/kg, po
[8] = Tmax in brain of male C57BL6 mouse at 3 mg/kg, po
[9] = Tmax in plasma of male C57BL6 mouse at 3 mg/kg, po
[10] = AUClast in plasma of male C57BL6 mouse at 3 mg/kg, po

`CCCOc1cc(CCN)c(OC)cc1Br` showed an AUC(0-inf) [1] of 6680 ng·h/mL, an AUC(0-t) [2] of 6480 ng·h/mL and a Cmax [3] of 1850 ng/mL. The Cmax [4] was 130 ng/mL, the half-life [5] was 1.44 h and the AUC(0-inf) [6] was 291 ng·h/mL. It also gave a half-life [7] of 1.29 h, a Tmax [8] of 1 h and a Tmax [9] of 0.5 h. It also gave an AUC(0-t) [10] of 284 ng·h/mL.
With `CN(C)CCc1c[nH]c2cccc(O)c12` [PSILOCIN] the AUC(0-inf) [1] was 4420 ng·h/mL, the AUC(0-t) [2] was 3600 ng·h/mL and the Cmax [3] was 1340 ng/mL. It also gave a Cmax [4] of 878 ng/mL, a half-life [5] of 1.7 h and an AUC(0-inf) [6] of 1140 ng·h/mL. The half-life [7] was 4.47 h, the Tmax [8] was 0.5 h and the AUC(0-t) [10] was 1060 ng·h/mL.
